Columns and labels:
[1] = Safety and toxicity of nebulized sodium citrate in healthy volunteers (FEV1, FVC); type: in vivo, human; parameters: FEV1 / FVC: unit not given here; settings: for FEV1 / FVC: 5 minutes after treatment
Protocol: The safety and toxicity of aqueous sodium citrate solution was examined as follows. Treatment solutions were prepared by diluting 0 mM, 11 mM and 22 mM sodium citrate in 2 ml of water. The solutions were nebulized and administered to three healthy volunteers in successive treatments, with ascending sodium citrate dosage volumes and a 5 min break between each treatment. The forced expiratory volume in 1 sec (FEV1) and forced vital capacity (FVC) were recorded 5 minutes after each treatment.

[2] = Sputum pourability (viscosity) test; parameters: key to pourability: “0”=no change; “+++>” dissolved
Protocol: The ability of sodium citrate solution to decrease the viscosity of sputum samples was examined as follows.
Three different sputum samples were employed: sample 1 was of a runny consistency; sample 2 was of an intermediate consistency; and sample 3 was of a heavy consistency. 100 ul samples were measured and transferred to assay tubes in duplicate (except for sample 1 which was in short supply) and placed in a 37° C. preheated Thermomixer. 10 ul of saline (0.9% NaCl) was used as a negative control. 5 ul, 10 ul, 50 ul or 100 ul of 55 mM aqueous sodium citrate solution was added per tube and mixed (400 rpm). Each tube was checked for pourability, or viscosity, at 30 sec, 90 sec and 150 sec by observing the movement of the sputum sample along the wall of the tube. The pourability of sample 3 was also checked at 5 minutes. The pourability was graded as follows: “0”=no change to “+++>” dissolved. The results of the study are shown below in Table 2 for samples 1-3, and in FIG. 1.

[3] = average found with alpha dornase; cited from earlier work

`O=C([O-])CC(O)(CC(=O)[O-])C(=O)[O-].[Na+].[Na+].[Na+]` [sodium citrate] showed an FEV1 ([1]; Volunteer 1, 11 mM nebulized) of 3.90, an FVC ([1]; Volunteer 1, 11 mM nebulized) of 4.66 and an FEV1 ([1]; Volunteer 1, 22 mM nebulized) of 3.96. It also gave an FVC ([1]; Volunteer 1, 22 mM nebulized) of 4.82, an FEV1 ([1]; Volunteer 2, 11 mM nebulized) of 2.39 and an FVC ([1]; Volunteer 2, 11 mM nebulized) of 3.48. The FEV1 ([1]; Volunteer 2, 22 mM nebulized) was 2.28, the FVC ([1]; Volunteer 2, 22 mM nebulized) was 3.40 and the FEV1 ([1]; Volunteer 3, 22 mM nebulized) was 2.79. For the same molecule, the FVC ([1]; Volunteer 3, 22 mM nebulized) was 2.84, the “irritation or other negative side effects” value ([1]; nebulization in three healthy volunteers) was “did not result in any irritation or other negative side effects” and the pourability ([2]; 5 ul added to 100 ul sputum, sample 1 (runny), 30 sec) was “+++>”. The pourability ([2]; 5 ul added to 100 ul sputum, sample 1 (runny), 90 sec) was “+++>”, the pourability ([2]; 5 ul added to 100 ul sputum, sample 1 (runny), 150 sec) was “+++>” and the pourability ([2]; 5 ul added to 100 ul sputum, sample 1 (runny), time 0) was “+++>”. The pourability ([2]; 5 ul added to 100 ul sputum, sample 2 (intermediate), 30 sec) was 0, the pourability ([2]; 5 ul added to 100 ul sputum, sample 2 (intermediate), time 0) was 0 and the pourability ([2]; 5 ul added to 100 ul sputum, sample 3 (heavy), 30 sec) was 0. For the same molecule, the pourability ([2]; 5 ul added to 100 ul sputum, sample 3 (heavy), 5 min) was “+>”, the pourability ([2]; 5 ul added to 100 ul sputum, sample 3 (heavy), time 0) was 0 and the pourability ([2]; 10 ul added to 100 ul sputum, sample 1 (runny), 30 sec) was “+++>”. The pourability ([2]; 10 ul added to 100 ul sputum, sample 1 (runny), 90 sec) was “+++>”, the pourability ([2]; 10 ul added to 100 ul sputum, sample 1 (runny), 150 sec) was “+++>” and the pourability ([2]; 10 ul added to 100 ul sputum, sample 1 (runny), time 0) was “+++>”. The pourability ([2]; 10 ul added to 100 ul sputum, sample 2 (intermediate), 30 sec) was 0, the pourability ([2]; 10 ul added to 100 ul sputum, sample 2 (intermediate), 150 sec) was “+>” and the pourability ([2]; 10 ul added to 100 ul sputum, sample 2 (intermediate), time 0) was 0. For the same molecule, the pourability ([2]; 10 ul added to 100 ul sputum, sample 3 (heavy), 30 sec) was 0, the pourability ([2]; 10 ul added to 100 ul sputum, sample 3 (heavy), 5 min) was “++>” and the pourability ([2]; 10 ul added to 100 ul sputum, sample 3 (heavy), time 0) was 0. The pourability ([2]; 50 ul added to 100 ul sputum, sample 1 (runny), 30 sec) was “+++>”, the pourability ([2]; 50 ul added to 100 ul sputum, sample 1 (runny), 90 sec) was “+++>” and the pourability ([2]; 50 ul added to 100 ul sputum, sample 1 (runny), 150 sec) was “+++>”. The pourability ([2]; 50 ul added to 100 ul sputum, sample 1 (runny), time 0) was “+++>”, the pourability ([2]; 50 ul added to 100 ul sputum, sample 2 (intermediate), 150 sec) was “++>” and the pourability ([2]; 50 ul added to 100 ul sputum, sample 2 (intermediate), time 0) was 0. For the same molecule, the pourability ([2]; 50 ul added to 100 ul sputum, sample 3 (heavy), 90 sec) was “+>”, the pourability ([2]; 50 ul added to 100 ul sputum, sample 3 (heavy), 150 sec) was “+>” and the pourability ([2]; 50 ul added to 100 ul sputum, sample 3 (heavy), 5 min) was “+++>”. The pourability ([2]; 50 ul added to 100 ul sputum, sample 3 (heavy), time 0) was 0, the pourability ([2]; 100 ul added to 100 ul sputum, sample 2 (intermediate), 90 sec) was “++>” and the pourability ([2]; 100 ul added to 100 ul sputum, sample 2 (intermediate), 150 sec) was “+++>”. For the same molecule, the pourability ([2]; 100 ul added to 100 ul sputum, sample 2 (intermediate), time 0) was 0, the pourability ([2]; 100 ul added to 100 ul sputum, sample 3 (heavy), 5 min) was “+++>” and the pourability ([2]; 100 ul added to 100 ul sputum, sample 3 (heavy), time 0) was 0. The “time of maximal effectiveness in reducing sputum viscosity” value ([2]; following incubation) was 5 min.

B1: alpha dornase: Pulmozyme® (dornase alfa or rhDNase), approved for treatment of CF (protein, UniProt P24855 23-282, looked up)
Deoxyribonuclease-1: LKIAAFNIQTFGETKMSNATLVSYIVQILSRYDIALVQEVRDSHLTAVGKLLDNLNQDAPDTYHYVVSEPLGRNSYKERYLFVYRPDQVSAVDSYYYDDGCEPCGNDTFNREPAIVRFFSRFTEVREFAIVPLHAAPGDAVAEIDALYDVYLDVQEKWGLEDVMLMGDFNAGCSYVRPSQWSSIRLWTSPTFQWLIPDSADTTATPTHCAYDRIVVAGMLLRGAVVPDSALPFNFQAAYGLSDQLAQAISDHYPVEVMLK
modifications: dornase alfa
notes: Pulmozyme® (dornase alfa or rhDNase), approved for treatment of CF
In the case of B1, the “improvement in lung function (FEV1), average” value [3] is given as 9%.

From US20160120898A1, “METHODS AND COMPOSITIONS FOR THE DISRUPTION OF BIOFILMS AND TREATMENT OF DISORDERS CHARACTERIZED BY THE PRESENCE OF BIOFILMS” (BREATHE EASY LIMITED, priority 2013, published 2016)
